Patent US12692254B2, “Benzimidazole inhibitors of PAD enzymes” (BRISTOL-MYERS SQUIBB COMPANY, priority 2018, dated 2026)

Biological target: human PAD4 (hPAD4) (Homo sapiens, UniProt Q9UM07)
Assay: RFMS human PAD4 functional assay (rapid-fire mass spectrum)
Format: biochemical
Conditions: 5 nM hPAD4 enzyme, 250 μM BAEE, 50 μM Calcium; 30 min preincubation, 90 min reaction at 37° C.
Method in brief: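 PAD4 (10 nM) preincubated 30 min with compound (top final 50 μM), then BAEE substrate added in pH 7.5 HEPES buffer with DTT, 50 μM calcium, TPEN; 90 min at 37° C. After TCA quench, citrulline derivatized with phenyl glyoxal (4 mM final, 30 min, 37° C) and quantified by RapidFire MS against internal standard.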

Chain of human PAD4 (hPAD4) (Q9UM07 whole entry): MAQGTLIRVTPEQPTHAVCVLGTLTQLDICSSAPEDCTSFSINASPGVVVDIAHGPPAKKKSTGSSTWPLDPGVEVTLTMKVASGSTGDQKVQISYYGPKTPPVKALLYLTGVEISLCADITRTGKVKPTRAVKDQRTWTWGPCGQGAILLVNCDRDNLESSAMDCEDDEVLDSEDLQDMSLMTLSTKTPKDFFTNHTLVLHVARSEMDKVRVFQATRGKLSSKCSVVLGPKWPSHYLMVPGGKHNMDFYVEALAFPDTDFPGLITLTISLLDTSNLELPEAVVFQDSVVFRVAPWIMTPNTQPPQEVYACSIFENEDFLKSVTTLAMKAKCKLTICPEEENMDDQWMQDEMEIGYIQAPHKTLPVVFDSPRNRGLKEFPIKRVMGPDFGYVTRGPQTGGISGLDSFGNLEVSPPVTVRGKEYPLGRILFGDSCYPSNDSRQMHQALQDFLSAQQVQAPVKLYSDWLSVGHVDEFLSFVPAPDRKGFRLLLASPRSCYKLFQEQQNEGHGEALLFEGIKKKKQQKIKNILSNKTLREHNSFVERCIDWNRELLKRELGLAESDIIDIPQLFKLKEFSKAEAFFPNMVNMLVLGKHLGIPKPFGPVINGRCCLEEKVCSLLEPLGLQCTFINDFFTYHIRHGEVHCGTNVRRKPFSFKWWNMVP

SMILES | IC50
COc1cc(C(=O)N2C[C@H]3CC[C@@H]2[C@@H]3N)cc2nc(-c3cc4cccnc4n3CC3CC3)n(C3CN(C(=O)c4cnc(C#N)nc4)C3)c12 [Example 102, 5-(3-{5-[(1R,4R,7R)-7-amino-2-azabicyclo[2.2.1]heptane-2-carbonyl]-2-[1-(cyclopropylmethyl)-1H-pyrrolo[2,3-b]pyridin-2-yl]-7-methoxy-1H-1,3-benzodiazol-1-yl}azetidine-1-carbonyl)pyrimidine-2-carbonitrile] | 141 nM
CCc1ccccc1-c1nc2cc(C(=O)N3C[C@H]4CC[C@@H]3[C@@H]4N)cc(OC)c2n1CC1CN(c2cncc(C#N)c2)C1 [Example 312, 5-[3-({5-[(1R,4R,7R)-7-amino-2-azabicyclo[2.2.1]heptane-2-carbonyl]-2-(2-ethylphenyl)-7-methoxy-1H-1,3-benzodiazol-1-yl}methyl)azetidin-1-yl]pyridine-3-carbonitrile] | 380 nM
N#Cc1ccc(C(=O)N2CC(Cn3c(-c4cc5cccnc5n4CC4CC4)nc4cc(C(=O)N5CC6CCC5[C@@H]6N)cc(F)c43)C2)cc1 (stereo partly shown) [Example 462] | 70 nM
COc1cc(C(=O)N2CCC[C@@H](N)C2)cc2nc(-c3cc4ccccc4n3CC3CC3)n(CC3CN(C(=O)c4ccc(C#N)cc4)C3)c12 [Example 180, 4-[3-({5-[(3R)-3-aminopiperidine-1-carbonyl]-2-[1-(cyclopropylmethyl)-1H-indol-2-yl]-7-methoxy-1H-1,3-benzodiazol-1-yl}methyl)azetidine-1-carbonyl]benzonitrile] | 95 nM
COc1cc(C(=O)N2C[C@H]3CC[C@@H]2[C@@H]3N)cc2nc(-c3cc4cccnc4n3CC3CC3)n(CC3CN(C(=O)c4ccncc4)C3)c12 [Example 117, (1R,4R,7R)-2-{2-[1-(cyclopropylmethyl)-1H-pyrrolo[2,3-b]pyridin-2-yl]-7-methoxy-1-{[1-(pyridine-4-carbonyl)azetidin-3-yl]methyl}-1H-1,3-benzodiazole-5-carbonyl}-2-azabicyclo[2.2.1]heptan-7-amine] | 66 nM
COc1cc(C(=O)N2C[C@H](N)CC[C@@H]2C)cc2nc(-c3cc4ccccc4n3CC3CC3)n(CC3CN(C(=O)c4ccc(C#N)cc4)C3)c12 [Example 176, 4-[3-({5-[(2S,5R)-5-amino-2-methylpiperidine-1-carbonyl]-2-[1-(cyclopropylmethyl)-1H-indol-2-yl]-7-methoxy-1H-1,3-benzodiazol-1-yl}methyl)azetidine-1-carbonyl]benzonitrile] | 80 nM
COc1cc(C(=O)N2C[C@H]3CC[C@@H]2[C@@H]3N)cc2nc(-c3cc4ccccc4n3C)n(CC3CN(c4cncc(C#N)n4)C3)c12 [Example 41, 6-[3-({5-[(1R,4R,7R)-7-amino-2-azabicyclo[2.2.1]heptane-2-carbonyl]-7-methoxy-2-(1-methyl-1H-indol-2-yl)-1H-1,3-benzodiazol-1-yl}methyl)azetidin-1-yl]pyrazine-2-carbonitrile] | 100 nM
COc1cc(C(=O)N2C[C@H]3CC[C@@H]2[C@@H]3N)cc2nc(-c3cc4cccnc4n3CC3CC3)n(C3CN(S(=O)(=O)CC4CC4)C3)c12 [Example 331, (1R,4R,7R)-2-[1-(1-cyclopropylmethanesulfonylazetidin-3-yl)-2-[1-(cyclopropylmethyl)-1H-pyrrolo[2,3-b]pyridin-2-yl]-7-methoxy-1H-1,3-benzodiazole-5-carbonyl]-2-azabicyclo[2.2.1]heptan-7-amine] | 190 nM
COc1cc(C(=O)N2C[C@H]3CC[C@@H]2[C@@H]3N)cc2nc(-c3cc4cccnc4n3CC3CC3)n(CC3CN(c4cncc(C)n4)C3)c12 [Example 63, (1R,4R,7R)-2-{2-[1-(cyclopropylmethyl)-1H-pyrrolo[2,3-b]pyridin-2-yl]-7-methoxy-1-{[1-(6-methylpyrazin-2-yl)azetidin-3-yl]methyl}-1H-1,3-benzodiazole-5-carbonyl}-2-azabicyclo[2.2.1]heptan-7-amine] | 199 nM
COC(=O)N1CC(n2c(-c3cc4cccnc4n3CC3CC3)nc3cc(C(=O)N4C[C@H]5CC[C@@H]4[C@@H]5N)cc(OC)c32)C1 [Example 188, methyl 3-{5-[(1R,4R,7R)-7-amino-2-azabicyclo[2.2.1]heptane-2-carbonyl]-2-[1-(cyclopropylmethyl)-1H-pyrrolo[2,3-b]pyridin-2-yl]-7-methoxy-1H-1,3-benzodiazol-1-yl}azetidine-1-carboxylate] | 393 nM
COc1cc(C(=O)N2C[C@H]3CC[C@@H]2[C@@H]3N)cc2nc(-c3cc4cccnc4n3CC3CC3)n(C[C@@H]3CCN(c4cncnc4C#N)C3)c12 [Example 214, 5-[(3R)-3-({5-[(1R,4R,7R)-7-amino-2-azabicyclo[2.2.1]heptane-2-carbonyl]-2-[1-(cyclopropylmethyl)-1H-pyrrolo[2,3-b]pyridin-2-yl]-7-methoxy-1H-1,3-benzodiazol-1-yl}methyl)pyrrolidin-1-yl]pyrimidine-4-carbonitrile] | 116 nM

Compounds with a lower IC50, results first:

IC50 | SMILES
53 nM | COc1cc(C(=O)N2CC3CCC2[C@@H]3N)cc2nc(-c3cc4cccnc4n3CC3CC3)n(CC3CN(C(=O)c4ccc(C#N)cc4F)C3)c12 (stereo partly drawn) [Example 454, 4-[3-({5-[(7R)-7-amino-2-azabicyclo[2.2.1]heptane-2-carbonyl]-2-(1-(cyclopropylmethyl)-1H-pyrrolo[2,3-b]pyridin-2-yl]-7-methoxy-1H-1,3-benzodiazol-1-yl}methyl)azetidine-1-carbonyl]-3-fluorobenzointrile]
53 nM | COc1cc(C(=O)N2CC3CCC2[C@@H]3N)cc2nc(-c3cc4ccccc4n3CC3CC3)n(CC3CN(C(=O)c4cscn4)C3)c12 (stereo partly drawn) [Example 453, (7R)-2-{2-[1-(cyclopropylmethyl)-1H-indol-2-yl]-7-methoxy-1-{[1-(1,3-thiazole-4-carbonyl)azetidin-3-yl]methyl}-1H-1,3-benzodiazole-5-carbonyl}-2-azabicyclo[2.2.1]heptan-7-amine]
50 nM | COc1cc(C(=O)N2CC3CCC2[C@@H]3N)cc2nc(-c3cc4cccnc4n3CC3CC3)n(Cc3cnn(-c4cccnc4)c3)c12 (stereo partly drawn) [Example 395, (7R)-2-{2-[1-(cyclopropylmethyl)-1H-pyrrolo[2,3-b]pyridin-2-yl]-7-methoxy-1-{[1-(pyridin-3-yl)-1H-pyrazol-4-yl]methyl}-1H-1,3-benzodiazole-5-carbonyl}-2-azabicyclo[2.2.1]heptan-7-amine]
50 nM | COc1cc(C(=O)N2C[C@H]3CC[C@@H]2[C@@H]3N)cc2nc(-c3cc4cccnc4n3CC3CC3)n(CC3CN(c4cnc(C#N)nc4)C3)c12 [Example 17, 5-[3-({5-[(1R,4R,7R)-7-amino-2-azabicyclo[2.2.1]heptane-2-carbonyl]-2-[1-(cyclopropylmethyl)-1H-pyrrolo[2,3-b]pyridin-2-yl]-7-methoxy-1H-1,3-benzodiazol-1-yl}methyl)azetidin-1-yl]pyrimidine-2-carbonitrile]
47 nM | COc1cc(C(=O)N2C[C@H]3CC[C@@H]2[C@@H]3N)cc2nc(-c3cc4cccnc4n3CC3CC3)n(CC3CN(c4nccnc4C#N)C3)c12 [Example 15, 3-[3-({5-[(1R,4R,7R)-7-amino-2-azabicyclo[2.2.1]heptane-2-carbonyl]-2-[1-(cyclopropylmethyl)-1H-pyrrolo[2,3-b]pyridin-2-yl]-7-methoxy-1H-1,3-benzodiazol-1-yl}methyl)azetidin-1-yl]pyrazine-2-carbonitrile]
43 nM | COc1cc(C(=O)N2CC3CCC2[C@@H]3N)cc2nc(-c3cc4cccnc4n3CC3CC3)n(CC3(C)CN(C(=O)c4ccccc4)C3)c12 (stereo partly drawn) [Example 444, (7R)-2-{1-[(1-benzoyl-3-methylazetidin-3-yl)methyl]-2-[1-(cyclopropylmethyl)-1H-pyrrolo[2,3-b]pyridin-2-yl]-7-methoxy-1H-1,3-benzodiazole-5-carbonyl}-2-azabicyclo[2.2.1]heptan-7-amine]
37 nM | COc1cc(C(=O)N2CC3CCC2[C@@H]3N)cc2nc(-c3cc4cccnc4n3CC3CC3)n(Cc3cnn(-c4cc(F)cnc4O)c3)c12 (stereo partly drawn) [Example 380, 3-[4-({5-[(7R)-7-amino-2-azabicyclo[2.2.1]heptane-2-carbonyl]-2-[1-(cyclopropylmethyl)-1H-pyrrolo[2,3-b]pyridin-2-yl]-7-methoxy-1H-1,3-benzodiazol-1-yl)methyl}-1H-pyrazol-1-yl]-5-fluoropyridin-2-ol]
29 nM | COc1cc(C(=O)N2CC3CCC2[C@@H]3N)cc2nc(-c3cc4cccnc4n3CC3CC3)n(CC3CN(C(=O)c4ccc(Cl)cc4)C3)c12 (stereo partly drawn) [Example 429, (7R)-2-(1-{[1-(4-chlorobenzoyl)azetidin-3-yl]methyl}-2-[1-(cyclopropylmethyl)-1H-pyrrolo[2,3-b]pyridin-2-yl]-7-methoxy-1H-1,3-benzodiazole-5-carbonyl)-2-azabicyclo[2.2.1]heptan-7-amine]
23 nM | COc1cc(C(=O)N2C[C@H](N)C[C@@H](F)C2)cc2nc(-c3cc4ccccc4n3CC3CC3)n(CC3CN(C(=O)c4cccc(F)c4)C3)c12 [Example 157, (3R,5R)-1-{2-[1-(cyclopropylmethyl)-1H-indol-2-yl]-1-{[1-(3-fluorobenzoyl)azetidin-3-yl]methyl}-7-methoxy-1H-1,3-benzodiazol-5-carbonyl}-5-fluoropiperidin-3-amine]
23 nM | COc1cc(C(=O)N2CC3CCC2[C@@H]3N)cc2nc(-c3cc4ccc(Br)cc4n3CC3CC3)n(Cc3cnn(C)c3)c12 (stereo partly drawn) [Example 522, (7R)-2-{2-[6-bromo-1-(cyclopropylmethyl)-1H-indol-2-yl]-7-methoxy-1-[(1-methyl-1H-pyrazol-4-yl)methyl]-1H-1,3-benzodiazole-5-carbonyl}-2-azabicyclo[2.2.1]heptan-7-amine]
8 nM | COc1cc(C(=O)N2C[C@H]3CC[C@@H]2[C@@H]3N)cc2nc(-c3cc4ccccc4n3CC3CC3)n(CC3CN(C(=O)c4ccc(C#N)c(F)c4)C3)c12 [Example 135, 4-[3-({5-[(1R,4R,7R)-7-amino-2-azabicyclo[2.2.1]heptane-2-carbonyl]-2-[1-(cyclopropylmethyl)-1H-indol-2-yl]-7-methoxy-1H-1,3-benzodiazol-1-yl}methyl)azetidine-1-carbonyl]-2-fluorobenzonitrile]
